Test system: S. aureus
Assay: Clinical outcome of the prescribed antibiotic therapy (presence/absence of S. aureus in a second sample at end of first-line treatment)
Type: in vivo, patients diabétiques
From the text: • La Figure 1 représente des courbes de croissance de bactéries en fonction du milieu de culture. Sur cette figure, les ordonnées correspondent au logarithme d'unités formant colonie par millilitre de milieu de culture (Log UFC/ml) et les abscisses, au temps en heure (H). La Figure 1A représente les courbes correspondant à la croissance de 2 souches de S. aureus, Newman (gauche) et SAC1 (droite), dans le milieu BHI (courbe avec indicateurs ronds) et un exemple de milieu selon l'invention (MP) (courbe avec indicateurs carrés). La Figure 1B représente les courbes correspondant à la croissance de 2 souches de P. aeruginosa, PAO1 (gauche) et PAC1 (droite), dans le milieu BHI (courbe avec indicateurs ronds) et un exemple de milieu selon l'invention (MP) (courbe avec indicateurs carrés). La Figure 1C représente les courbes correspondant à la croissance de 2 souches cliniques S. aureus SAC1 et P. aeruginosa PAC1, en coculture dans le milieu BHI (P. aeruginosa BHI ou S. aureus BHI) et un exemple de milieu selon l'invention (MP) (P. aeruginosa MP ou S. aureus MP). La mesure de différence significative, réalisée par le test de Student, entre les valeurs d'UFC/mL est exprimée, soit par (***) qui correspond à une p-value <0,001, soit par (**) qui correspond à une p-value <0,01. • La Figure 2 représente les résultats obtenus d'une détermination de l'adhésion et de la formation de biofilm par dénombrement à 24h. Sur cette figure, les ordonnées correspondent au logarithme d'unités formant colonie par millilitre de milieu de culture (Log UFC/ml). La Figure 2A représente un histogramme ou diagramme en bâton du nombre de bactéries dénombrées suite à des cultures séparées de souche S. aureus Newman (Newman), S. aureus SAC1 (SAC 1), P. aeruginosa PAO1 (PAO1) ou P. aeruginosa PAC1 (PAC1), pendant 24H dans un milieu BHI (BHI) (bâtons noirs) ou dans un exemple de milieu selon l'invention (MP) (bâtons gris). La Figure 2B montre sous forme d'histogramme le nombre de bactéries dénombrées suite à des co-cultures des souches de référence S. aureus Newman et P. aeruginosa PAO1 (PAO1/Newman), ainsi que du couple de souches cliniques S. aureus SAC1 et P. aeruginosa PAC1 (PAC 1/SAC1), pendant 24H dans un milieu BHI (BHI) (bâtons noirs) ou dans un exemple de milieu selon l'invention (MP) (bâtons gris). La mesure de différence significative, réalisée par le test de Student, entre les valeurs d'UFC est exprimée, soit par (***) qui correspond à une p-value <0,001, soit par (**) qui correspond à une p-value <0,01. • La Figure 3 représente les résultats obtenus d'une détermination de sensibilité à des antibiotiques de souches cliniques de S. aureus issues d'infections de plaies du pied chez le diabétique. Les données cliniques, anonymisées, nécessaires à l'interprétation des résultats, consistaient en l'antibiothérapie donnée au patient, ainsi que la qualification par les médecins hospitaliers d'un succès ou échec thérapeutique. La définition de succès ou échec thérapeutique est définie comme suit. Le patient commence et suit l'antibiothérapie prescrite et un deuxième prélèvement microbiologique est effectué lors du dernier jour de traitement de la 1ère antibiothérapie (± 2 jours). Ce prélèvement est utilisé pour déterminer la présence/absence du pathogène ciblé par l'antibiothérapie, S. aureus. Si ce prélèvement a montré la persistance d'un S. aureus, l'antibiothérapie est en échec. A l'inverse, en cas d'absence de S. aureus, l'antibiothérapie est associée à un succès thérapeutique. Les antibiogrammes ont été réalisés classiquement sur une durée de 18h ± 2h en accord avec les recommandations de l'EUCAST. Une gamme de l'antibiotique à tester a été réalisée. • La Figure 3A montre sous forme d'histogramme les résultats des CMI déduites d'antibiogrammes sur 11 souches testées en présence d'amoxicilline / clavulanate de potassium (commercialisé par exemple sous le nom d'Augmentin (marque déposée)). […]

Measured: Succès ou échec thérapeutique

CCC[C@@H]1C[C@@H](C(=O)N[C@@H]([C@H]2O[C@H](SC)[C@H](O)[C@@H](O)[C@H]2O)[C@H](C)Cl)N(C)C1 [clindamycine]
Succès: souche C01P009 | souche C03P003 | souche C03P004 | souche C03P009
Echec: souche C01P010 | souche C03P005

amoxicilline / clavulanate de potassium [amoxicilline/clavulanate de potassium]
Succès: souche C01P012 | souche C03P001 | souche C04P003 | souche C04P005f | souche C04P005i
Echec: souche C03P008 | souche C04P007 | souche C06P001f | souche C06P001 i | souche C06P003f | souche C06P003i

cotrimoxazole
Echec: souche C01P0 01 | souche C03P0 02 | souche C03P0 07
Succès: souche C01P0 11

From patent publication EP4060021A1, “MIMETIC MICROBIOLOGICAL CULTURE MEDIUM AND USES THEREOF” (BIOFILM PHARMA, priority 2021, dated 2022)
